Consider 2 compounds from patent publication EP3409671B1, “ISOTHIAZOLE DERIVATIVES AS GPR120 AGONISTS FOR THE TREATMENT OF TYPE II DIABETES” (Janssen Pharmaceutica NV, priority 2014, dated 2015).

The experiment concerns the target T1, long form of human GPR120 (Homo sapiens, UniProt Q5NUL3).
T1 construct: host or cells: PathHunter CHO-K1 GPR120 β-Arrestin Cell Line
T1 sequence (Q5NUL3 1-377 isoform Q5NUL3-1): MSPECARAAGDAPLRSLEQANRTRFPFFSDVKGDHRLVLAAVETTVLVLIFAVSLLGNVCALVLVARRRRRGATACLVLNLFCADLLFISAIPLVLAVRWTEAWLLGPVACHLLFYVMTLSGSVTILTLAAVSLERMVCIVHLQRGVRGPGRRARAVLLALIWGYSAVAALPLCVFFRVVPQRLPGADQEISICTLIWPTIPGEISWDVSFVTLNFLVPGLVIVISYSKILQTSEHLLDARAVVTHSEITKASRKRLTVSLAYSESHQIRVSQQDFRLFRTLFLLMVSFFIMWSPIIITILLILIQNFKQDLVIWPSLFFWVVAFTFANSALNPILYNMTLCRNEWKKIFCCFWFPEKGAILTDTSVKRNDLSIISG
The experiment can be described thus: Human GPR120 DiscoveRx PathHunter Beta-Arrestin assay, Procedure β-arrestin A. In kind it is cell-based. As to conditions: PathHunter CHO-K1 GPR120 β-Arrestin Cell Line, long form of human GPR120, 3000 cells per well; read-out: hGPR120 β-arrestin A EC50. An excerpt: The binding of an agonist (medium/long chain fatty acids or small molecule agonists) to the G-protein-coupled receptor GPR120 activates phospholipase C, leading to release of intracellular Ca^+2 through the generation of inositol 1,4,5-trisphosphate (InsP3 or IP3). GPR120 activation can also trigger intracellular signaling via recruitment of Beta-Arrestin. In the present method, agonist-induced activation of the human GPR120 receptor is monitored through the use of PathHunter CHO-K1 GPR120 Beta-Arrestin Cell Line engineered by DiscoveRx, as detailed below. […]
Under these conditions, these fragments can interact and form an active Beta-gal enzyme complex through Enzyme Fragment Complementation (EFC). This active Beta-gal complex can enzymatically hydrolyse the substrate to produce a detectable light signal; therefore, activation as a function of agonist concentration can be expressed as an EC50 value to determine relative compound activities. […]
The plates were read on an EnVision instrument, using Protocol name: Luminescence, Plate type: 384 Costar, Measurement height: 3 mm, Measurement time: 1s, Aperture: 384 Plate aperture. The %activity relative to the positive control was calculated using the following equation: %Activity = (Countcompound −Countvehicle)/(Countpostivite control −Countvehicle) × 100% [formula] […]

Broadly, the EC50 is the concentration giving half of the maximal effect. Regarding `O=C(O)CCc1ccc(OCc2c(C(F)(F)F)nsc2-c2ccc(Cl)cc2)c(Cl)c1Cl` [Cpd 55, 3-(2,3-dichloro-4-[[5-(4-chlorophenyl)-3-(trifluoromethyl)-1,2-thiazol4-yl]methoxy]phenyl) propanoic acid], the EC50 worked out at 176 nM.
As to `O=C(O)CCc1cc(F)c(OCc2c(Cl)nsc2-c2ccc(Cl)cc2)c(F)c1` [Cpd 75, 3-(4-[[3-chloro-5-(4-chlorophenyl)-1,2-thiazol-4-yl]methoxy]-3,5-difluorophenyl)propanoic acid], the 50% effective concentration (EC50) stood at 141 nM.
